Measured values from ChEMBL document CHEMBL5528023, “Discovery of a CB2 and 5-HT1A receptor dual agonist for the treatment of depression and anxiety” (Eur J Med Chem, 2024).
Values after ≈ are worked out from the molar mass of the structure shown. Active and inactive are the calls of the source. The calls are words filed in the database; no cut-off is given here.

How the values were obtained:
Cannabinoid receptor 1 [1] = biological target: T1, Cannabinoid receptor 1 (Homo sapiens, UniProt P21554); assay: Antagonist activity at human CB1 receptor expressed in CHO cells assessed as inhibition of forskolin-stimulated cAMP formation preincubated with compound for 10 mins followed by forskolin induction and measured after 30 mins by HTRF analysis; format: functional, cell-based
T1 sequence (P21554 whole entry): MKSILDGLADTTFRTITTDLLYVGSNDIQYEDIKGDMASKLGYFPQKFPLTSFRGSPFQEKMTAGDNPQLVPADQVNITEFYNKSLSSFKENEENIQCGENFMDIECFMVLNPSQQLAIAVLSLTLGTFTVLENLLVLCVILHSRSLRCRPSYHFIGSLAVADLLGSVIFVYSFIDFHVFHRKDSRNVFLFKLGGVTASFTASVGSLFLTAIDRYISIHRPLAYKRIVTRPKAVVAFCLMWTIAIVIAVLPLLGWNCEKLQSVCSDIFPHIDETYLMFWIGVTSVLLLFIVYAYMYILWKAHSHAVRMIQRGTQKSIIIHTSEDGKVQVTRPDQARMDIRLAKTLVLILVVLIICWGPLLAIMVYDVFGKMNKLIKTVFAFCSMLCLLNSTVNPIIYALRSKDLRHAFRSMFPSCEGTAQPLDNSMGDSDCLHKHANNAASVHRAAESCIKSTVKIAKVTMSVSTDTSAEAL

Cannabinoid receptor 2 [2] = biological target: T2, Cannabinoid receptor 2 (Homo sapiens, UniProt P34972); assay: Agonist activity at human CB2 receptor expressed in CHO cells assessed as forskolin-stimulated cAMP formation preincubated with compound for 10 mins followed by forskolin induction and measured after 30 mins by HTRF analysis; format: functional, cell-based
T2 sequence (P34972 whole entry): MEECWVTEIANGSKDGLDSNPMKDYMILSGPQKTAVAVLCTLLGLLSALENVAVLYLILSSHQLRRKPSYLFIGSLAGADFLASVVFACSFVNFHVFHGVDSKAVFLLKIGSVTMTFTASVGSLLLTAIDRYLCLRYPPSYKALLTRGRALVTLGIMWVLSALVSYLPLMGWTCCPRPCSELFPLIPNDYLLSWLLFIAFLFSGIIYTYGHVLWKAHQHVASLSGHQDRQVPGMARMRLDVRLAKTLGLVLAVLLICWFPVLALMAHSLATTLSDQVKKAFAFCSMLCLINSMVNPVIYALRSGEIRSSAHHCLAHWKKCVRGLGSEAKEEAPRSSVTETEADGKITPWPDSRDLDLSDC

[3] = Half life in ICR mouse at 25 mg/kg, po measured upto 8 hrs by LC-MS/MS analysis; format: ADME, organism-based; settings: in vivo
[4] = AUClast in ICR mouse at 25 mg/kg, po measured upto 8 hrs by LC-MS/MS analysis; format: ADME, organism-based; settings: in vivo
Cannabinoid receptor 1 [5] = biological target: T1, Cannabinoid receptor 1; assay: Antagonist activity at human CB1 receptor expressed in CHO cells assessed as inhibition of forskolin-stimulated cAMP formation by measuring maximum inhibition preincubated with compound for 10 mins followed by forskolin induction and measured after 30 mins by HTRF analysis relative to control; format: functional, cell-based; settings: filed as antagonist, time 40.0 min
[6] = Cmax in ICR mouse at 25 mg/kg, po measured upto 8 hrs by LC-MS/MS analysis; format: ADME, organism-based; settings: in vivo
Cannabinoid receptor 2 [7] = biological target: T2, Cannabinoid receptor 2; assay: Partial agonist activity at human CB2 receptor expressed in CHO cells assessed as forskolin-stimulated cAMP formation preincubated with compound for 10 mins followed by forskolin induction and measured after 30 mins by HTRF analysis; format: functional, cell-based
Cannabinoid receptor 2 [8] = biological target: T2, Cannabinoid receptor 2; assay: Partial agonist activity at human CB2 receptor expressed in CHO cells assessed as forskolin-stimulated cAMP formation preincubated with compound for 10 mins followed by forskolin induction and measured after 30 mins by HTRF analysis relative to control; format: functional, cell-based; settings: filed as partial agonist, time 40.0 min
[9] = Tmax in ICR mouse at 25 mg/kg, po measured upto 8 hrs by LC-MS/MS analysis; format: ADME, organism-based; settings: in vivo
[10] = Solubility of compound in phosphate buffer at pH 6.8 by HPLC analysis; format: physicochemical
Mus musculus [11] = assay: Anxiolytic activity against stress-induced hyperthermia in ip dosed ICR mouse assessed as reduction in basal core rectal temperature measured for 60 mins; format: functional, organism-based; settings: dose 3-10 mg/kg
[12] = Toxicity in C57BL/6J mouse assessed as effect on body weight at 1 to 10 mg/kg, ip measured upto 10 days; format: organism-based; settings: in vivo, 240 h, dose 1-10 mg/kg, time < 10 day
Mus musculus [13] = assay: Antidepressant activity in C57BL/6J mouse assessed as reduction in immobility time at 1 mg/kg, ip administered for 12 days by forced swim test; format: functional, organism-based; settings: time 12.0 day
[14] = biological target: T3, 5-hydroxytryptamine receptor 1A (Homo sapiens, UniProt P08908); assay: Agonist activity at human 5HT1A receptor expressed in HEK293 cells assessed as forskolin-stimulated cAMP formation preincubated with compound for 10 mins followed by forskolin induction and measured after 30 mins by HTRF analysis; format: functional, cell-based
T3 sequence (P08908 whole entry): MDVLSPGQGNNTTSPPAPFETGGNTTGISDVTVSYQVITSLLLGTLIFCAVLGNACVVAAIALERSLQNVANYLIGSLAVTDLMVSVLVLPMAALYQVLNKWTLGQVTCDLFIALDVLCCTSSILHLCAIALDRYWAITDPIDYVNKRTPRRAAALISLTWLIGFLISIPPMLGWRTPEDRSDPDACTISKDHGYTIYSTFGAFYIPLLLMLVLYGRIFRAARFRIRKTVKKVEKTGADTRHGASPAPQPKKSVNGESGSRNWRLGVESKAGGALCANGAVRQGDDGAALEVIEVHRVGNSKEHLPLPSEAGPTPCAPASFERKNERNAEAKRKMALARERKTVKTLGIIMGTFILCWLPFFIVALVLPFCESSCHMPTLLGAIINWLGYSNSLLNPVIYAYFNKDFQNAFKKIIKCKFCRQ

Cannabinoid receptor 2 [15] = biological target: T2, Cannabinoid receptor 2; assay: Agonist activity at human CB2 receptor expressed in CHO cells assessed as forskolin-stimulated cAMP formation preincubated with compound for 10 mins followed by forskolin induction and measured after 30 mins by HTRF analysis relative to control; format: functional, cell-based; settings: time 40.0 min
Mus musculus [16] = assay: Antidepressant activity in C57BL/6J mouse at 1 mg/kg, ip administered for 14 days by tail suspension test; format: functional, organism-based; settings: time 14.0 day
Mus musculus [17] = assay: Induction of spontaneous locomotor activity in C57BL/6 mouse at 1 mg/kg, ip measured at 1 hr; format: functional, organism-based
Mus musculus [18] = assay: Antidepressant activity in C57BL/6J mouse assessed as reduction in immobility time at 3 to 10 mg/kg, ip administered for 12 days by forced swim test; format: functional, organism-based; settings: dose 3-10 mg/kg, time 12.0 day
[19] = biological target: T4, 5-hydroxytryptamine receptor 1A (Homo sapiens) (UniProt P08908); assay: Agonist activity at human 5HT1A receptor expressed in HEK293 cells assessed as forskolin-stimulated cAMP formation preincubated with compound for 10 mins followed by forskolin induction and measured after 30 mins by HTRF analysis relative to control; format: functional, cell-based; settings: filed as agonist, time 40.0 min
T4 sequence (whole entry): T3 sequence (P08908 whole entry)

Mus musculus [20] = assay: Anxiolytic activity against stress-induced hyperthermia in ip dosed ICR mouse assessed as reduction in delta temperature measured for 60 mins; format: functional, organism-based; settings: dose 1-10 mg/kg
Mus musculus [21] = assay: Antidepressant activity in C57BL/6J mouse assessed as reduction in immobility time at 1 mg/kg, ip administered for 12 days and measured after 15 mins by forced swim test; format: functional, organism-based; settings: time 17295.0 min
Mus musculus [22] = assay: Induction of spontaneous locomotor activity in C57BL/6 mouse at 3 mg/kg, ip measured at 15 mins; format: functional, organism-based
Mus musculus [23] = assay: Anxiolytic activity against stress-induced hyperthermia in ICR mouse assessed as reduction in basal core rectal temperature at 1 to 10 mg/kg, ip measured for 60 mins; format: functional, organism-based; settings: dose 1-10 mg/kg
Mus musculus [24] = assay: Antidepressant activity in C57BL/6J mouse assessed as reduction in immobility time at 3 to 10 mg/kg, ip administered for 12 days and measured after 15 mins by forced swim test; format: functional, organism-based; settings: dose 3-10 mg/kg, time 17295.0 min
Mus musculus [25] = assay: Induction of spontaneous locomotor activity in C57BL/6 mouse assessed as distance traveled at 1 to 10 mg/kg, ip administered once per day for 15 days and measured after 1 hr; format: functional, organism-based; settings: dose 1-10 mg/kg, time 361.0 hrs
Mus musculus [26] = assay: Antidepressant activity in C57BL/6J mouse assessed as […] at 1 mg/kg, ip administered for 14 days by tail suspension test; format: functional, organism-based; settings: time 14.0 day
Mus musculus [27] = assay: Induction of spontaneous locomotor activity in C57BL/6 mouse assessed as distance traveled at 10 mg/kg, ip measured at 1 hr; format: functional, organism-based
[28] = Cmax in ICR mouse brain at 25 mg/kg, po measured upto 8 hrs by LC-MS/MS analysis; format: ADME, organism-based
Cannabinoid receptor 2 [29] = biological target: T2, Cannabinoid receptor 2; assay: Agonist activity at CB2 receptor (unknown origin); format: functional

C=C(C)[C@@H]1CCC(C)=C[C@H]1c1c(O)cc(-c2ccccc2)cc1O
IC50 (Cannabinoid receptor 1 [1]): > 10000 nM
EC50 (Cannabinoid receptor 2 [2]): > 10 nM

C=C(C)[C@@H]1CCC(C)=C[C@H]1c1c(O)cc(CCCCC)c(C(=O)NCCCCC)c1O
IC50 (Cannabinoid receptor 1 [1]): > 10000 nM
EC50 (Cannabinoid receptor 2 [2]): > 10 nM

C=C(C)[C@@H]1CCC(C)=C[C@H]1c1ccc(C2CC2)c(C(N)=O)c1O
IC50 (Cannabinoid receptor 1 [1]): 6500 nM
half-life [3]: 2.9 h
AUC(0-t) at 8 h [4]: 170 ng·h/mL
Imax (Cannabinoid receptor 1 [5]): 108%
Cmax [6]: 90.4 ng/mL
EC50 (Cannabinoid receptor 2 [7]): 560 nM
Emax (Cannabinoid receptor 2 [8]): 44.7%
Tmax [9]: 0.4 h

C=C(C)[C@@H]1CCC(C)=C[C@H]1c1c(O)cc(CCCCC)c(C(=O)NC2CC2)c1O
IC50 (Cannabinoid receptor 1 [1]): 2300 nM
Imax (Cannabinoid receptor 1 [5]): 88.9%
EC50 (Cannabinoid receptor 2 [2]): > 10 nM

C=C(C)[C@@H]1CCC(C)=C[C@H]1c1c(O)cc(CCCCC)c(C(=O)NCCN(C)C)c1O
IC50 (Cannabinoid receptor 1 [1]): > 10000 nM
EC50 (Cannabinoid receptor 2 [2]): > 10 nM

C=C(C)[C@@H]1CCC(C)=C[C@H]1c1c(O)cc(CCCCC)c(C(=O)NC)c1O
IC50 (Cannabinoid receptor 1 [1]): 2600 nM
solubility [10]: 0.7 µg/mL (≈ 1.88 µM)
Imax (Cannabinoid receptor 1 [5]): 75.3%
EC50 (Cannabinoid receptor 2 [2]): > 10 nM

C=C(C)[C@@H]1CCC(C)=C[C@H]1c1c(O)cc(C2(CCCC)CC2)c(C(=O)NC)c1O
IC50 (Cannabinoid receptor 1 [1]): 2200 nM
Imax (Cannabinoid receptor 1 [5]): 91.1%
EC50 (Cannabinoid receptor 2 [2]): > 10000 nM

C=C(C)[C@@H]1CCC(C)=C[C@H]1c1c(O)cc(C(=O)CCCC)cc1O
IC50 (Cannabinoid receptor 1 [1]): 9900 nM
Imax (Cannabinoid receptor 1 [5]): 82.9%
EC50 (Cannabinoid receptor 2 [7]): 4690 nM
Emax (Cannabinoid receptor 2 [8]): 75.7%

C=C(C)[C@@H]1CCC(C)=C[C@H]1c1c(O)cc(C(C)C)cc1O
IC50 (Cannabinoid receptor 1 [1]): 18 nM
Imax (Cannabinoid receptor 1 [5]): 94%
EC50 (Cannabinoid receptor 2 [2]): > 10 nM

C=C(C)[C@@H]1CCC(C)=C[C@H]1c1c(O)cc(C2(CCCC)CC2)c(C(N)=O)c1O
Activity (Mus musculus [11]): Dose-Dependent Effect
IC50 (Cannabinoid receptor 1 [1]): 3200 nM
half-life [3]: 2.5 h
Activity [12]: Non-Toxic
Activity (Mus musculus [13]): Active
EC50 [14]: 2700 nM
Emax (Cannabinoid receptor 2 [15]): 34.9%
Activity (Mus musculus [16]): Active
Activity (Mus musculus [17]): Active
AUC(0-t) at 8 h [4]: 545 ng·h/mL
Activity (Mus musculus [18]): Active
Emax [19]: 101%
Imax (Cannabinoid receptor 1 [5]): 93.8%
Activity (Mus musculus [20]): Dose-Dependent Effect
Activity (Mus musculus [21]): Active
Activity (Mus musculus [22]): Active
Activity (Mus musculus [23]): Active
Activity (Mus musculus [24]): Active
Activity (Mus musculus [25]): Active
Activity (Mus musculus [26]): inactive
Activity (Mus musculus [27]): inactive
Cmax [6]: 211 ng/mL
EC50 (Cannabinoid receptor 2 [2]): 480 nM
Tmax [9]: 1.3 h
Cmax [28]: 217 ng/g

Cc1ccc(CC2CN(C(=O)C3C(C)(C)[C@@H]4CC[C@]3(C)C4)N=C2c2ccc(Cl)c(C)c2)cc1 (some centres not stated)
EC50 (Cannabinoid receptor 2 [29]): 190 nM

C=C(C)[C@@H]1CCC(C)=C[C@H]1c1c(O)cc(CCC)cc1O [CANNABIDIVARIN]
IC50 (Cannabinoid receptor 1 [1]): 5600 nM
Imax (Cannabinoid receptor 1 [5]): 94.9%
EC50 (Cannabinoid receptor 2 [2]): > 10 nM

CN1C(=O)CN=C(c2ccccc2)c2cc(Cl)ccc21
Activity (Mus musculus [11]): Dose-Dependent Effect
Activity (Mus musculus [20]): Dose-Dependent Effect
